# Measurements as given in patent US20100179324A1, “ANTI-TUMOR AGENT COMPRISING SULPHOSTIN OR SULPHOSTIN-RELATED COMPOUND AS THE ACTIVE INGREDIENT” (Microbial Chemistry Research Foundation, priority 2007, published 2010).
# Columns and labels:
# [1] = test system: Colon26 colorectal cancer cells; assay: Anti-tumor effect on Colon26 (Experimental Example 1), transplanted mice; assay type: in vivo; conditions: for suppression rate: tumor weight Day 28 vs control group
# Description: (§1) Also, in the Examples, the “suppression rate” was calculated using the following formula.
# (§2) Suppression rate (%)=(1−tumor weight in the administration group/tumor weight in the control group)×100
# (§3) Six-week-old BALB/cAnNCrj female mice were used for this test. The following six groups were provided: Group 1 in which physiological saline (solvent) was administered; Group 2 in which sulphostin was administered at a dose of 200 mg/kg; Group 3 in which sulphostin was administered at a dose of 50 mg/kg; Group 4 in which PT-100 was administered at a dose of 200 mg/kg; Group 5 in which PT-100 was administered at a dose of 50 mg/kg; and Group 6 in which Furtulon was administered at a dose of 30 mg/kg. The number of animals was set to eight in Group 1 (control group) and to six in each of Groups 2 to 6 (drug administration groups).
# (§4) On Day 0, 2×10^5 Colon26 colorectal cancer cells were transplanted into the groin of the mice. Each of sulphostin and PT-100 was intraperitoneally administered to the mice at the above dose once in a day on Days 1 to 6, 8 to 13, 15 to 20 and 22 to 27. Furtulon was orally administered following a similar administration schedule. In use, sulphostin and PT-100 were each diluted with physiological saline to have an intended concentration; and Furtulon was suspended in 0.5% sodium carboxymethyl cellulose and then diluted with physiological saline to have an intended concentration. On Day 28, the tumor was taken out from each mouse and weighed, to thereby determine the effect of each drug. In addition, the presence or absence of side effects of each drug was confirmed by monitoring a change in body weight of the mouse in the course of the treatment and observing the degree of hair loss in the mouse after administration.
# [2] = test system: Colon26 colorectal cancer cells; assay: Anti-tumor effect on advanced Colon26 (Experimental Example 2), drug from Day 10; assay type: in vivo, mouse
# Description: as §1, §2
# as §3, with “of 50” for “of 200”, “of 3.1” for “of 50”, “to seven” for “to eight”, “to five” for “to six”
# as §4, with “mice. Administration of each drug was initiated from Day 10 when the transplanted cancer cells were thought to grow.” for “mice.”, “Days 10” for “Days 1”, “to 18 and 20” for “to 6, 8”, “to 25.” for “to 13, 15 to 20 and 22 to 27.”, “mouse” for “mouse in the course of the treatment”, “mouse in the course of the treatment.” for “mouse after administration.”
# B16-BL6 melanoma cells = assay: Anti-tumor effect on B16-BL6 (Experimental Example 3), transplanted mice; assay type: in vivo, mouse; conditions: tumor weight Day 21 vs control group
# Description: as §1, §2
# Five-week-old C57BL/6NCrj female mice were used for this test. The following three groups were provided: Group 1 in which physiological saline (solvent) was administered; Group 2 in which sulphostin was administered at a dose of 200 mg/kg; and Group 3 in which sulphostin was administered at a dose of 50 mg/kg. The number of animals was set to seven in Group 1 (control group) and to five in each of Groups 2 and 3 (drug administration groups).
# On Day 0, 2×10^5 B16-BL6 melanoma cells were transplanted into the groin of the mice. Twenty four hours after transplantation, sulphostin was intraperitoneally administered to the mice at the above respective doses once in a day on Days 1 to 5, 7 to 12, and 14 to 19. In use, sulphostin was diluted with physiological saline to have an intended concentration. On Day 21, the tumor was taken out from each mouse and weighed, to thereby determine the effect of sulphostin.
# [3] = test system: B16-BL6 mouse melanoma cells; assay: Test on cell toxicity, MTT method, B16-BL6; assay type: cell-based; conditions: 48 h, two days incubation
# Description: (§5) The inhibitory effect of sulphostin on the proliferation of tumor cells in vitro was investigated. The culture liquid used was a 10% FCS-containing RPMI1640 medium, and incubation was performed at 37° C. in 5% CO2-air. EL-4 mouse thymoma cells, Colon-26 mouse colon cancer cells and B16-BL6 mouse melanoma cells were incubated at 1×10^4 cells/well for two days, and then the number of cells was measured by the MTT method. Specifically, MTT (0.4% and 10 μL) was added to each cell culture, followed by incubating for four hours. Further, 20% sodium dodecyl sulphate (SDS) was added thereto in an amount of 100 μL, and each plate was measured for absorbance at 570 nm and 690 nm using a microplate reader. Sulphostin was added to the wells simultaneously with the initiation of the tumor cell incubation.
# [4] = test system: Colon-26 mouse colon cancer cells; assay: Test on cell toxicity, MTT method, Colon-26; assay type: cell-based; conditions: Colon 26, 48 h, Colon26 colon cancer, two days incubation
# Description: as §5
# EL-4 mouse thymoma cells = assay: Test on cell toxicity, MTT method, EL-4; assay type: cell-based; conditions: 48 h, EL4 thymoma, two days incubation
# Description: as §5
# [5] = Toxicity test on mouse (Experimental Example 4); assay type: in vivo; conditions: i.p. twice a day for 10 days; for Heart weight (Avg.) / Left kidney weight (Avg.) / Liver weight (Avg.) / Lung weight (Avg.) / Right kidney weight (Avg.) / Spleen weight (Avg.) / Thymus weight (Avg.): dissected Day 19; for change in body weight: normal mice
# Description: Four-week-old female ICR mice (Crj: CD-1) were used for this test. The following six groups were provided: Group 1 in which physiological saline (solvent) was administered; Group 2 in which sulphostin was administered at a dose of 50 mg/kg; Group 3 in which sulphostin was administered at a dose of 25 mg/kg; Group 4 in which PT-100 was administered at a dose of 50 mg/kg; Group 5 in which PT-100 was administered at a dose of 25 mg/kg; Group 6 in which PT-100 was administered at a dose of 12.5 mg/kg; and Group 7 in which PT-100 was administered at a dose of 6.3 mg/kg. Note that each of the above doses is a dose for each administration. The number of animals was set to three in each of the groups. Each drug was intraperitoneally administered to each mouse twice in a day for 10 consecutive days, and the mouse was weighed at an appropriate time and monitored over time. On Day 19 after initiation of administration, each mouse was dissected under anesthesia and examined for remarks.
# [6] = 50 mg/kg intraperitoneal once a day from Day 1
# [7] = 50 mg/kg intraperitoneal, six mice per group
# [8] = 200 mg/kg intraperitoneal once a day from Day 1
# [9] = 200 mg/kg intraperitoneal, six mice per group
# [10] = 3.1 mg/kg intraperitoneal from Day 10, tumor weight Day 28 vs control group
# [11] = 50 mg/kg intraperitoneal from Day 10, tumor weight Day 28 vs control group
smiles,measurement,setting,value
"C[C@H]1O[C@@H](n2cc(F)c(=O)[nH]c2=O)[C@H](O)[C@@H]1O [Furtulon, Doxifluridine]",tumor regression,[1]; 30 mg/kg oral,the tumor was not regressed
same,suppression rate,[1]; 30 mg/kg oral once a day from Day 1,56.9%
same,suppression rate,"[2]; 30 mg/kg oral from Day 10, tumor weight Day 28 vs control group",47.0%
CC(C)[C@H](N)C(=O)N1CCC[C@H]1B(O)O [PT-100],hair loss by continuous administration,[1]; 50 mg/kg intraperitoneal,extremely observed throughout the body
same,suppression rate,[1]; [6],66.7%
same,tumor regression,[1]; [7],the tumor was not regressed
same,hair loss by continuous administration,[1]; 200 mg/kg intraperitoneal,extremely observed throughout the body
same,loss of body weight by continuous administration,[1]; 200 mg/kg intraperitoneal,considerably observed
same,suppression rate,[1]; [8],62.3%
same,tumor regression,[1]; [9],the tumor was not regressed
same,suppression rate on tumor weight,[2]; [10],51.5%
same,suppression rate on tumor weight,[2]; [11],70.8%
"N[C@H]1CCCN([P@@](N)(=O)NS(=O)(=O)O)C1=O [Sulphostin, 3(S)-amino-1-((R)-amino(sulfoamino)phosphinyl)-2-piperidone]",hair loss by continuous administration,[1]; 50 mg/kg intraperitoneal,hardly observed
same,loss of body weight by continuous administration,[1]; 50 mg/kg intraperitoneal,not observed
same,suppression rate,[1]; [6],87.8%
same,tumor regression,[1]; [7],two out of six mice
same,hair loss by continuous administration,[1]; 200 mg/kg intraperitoneal,hardly observed
same,loss of body weight by continuous administration,[1]; 200 mg/kg intraperitoneal,not observed
same,suppression rate,[1]; [8],91.7%
same,tumor regression,[1]; [9],two out of six mice
same,suppression rate,B16-BL6 melanoma cells; [6],53.3%
same,suppression rate,B16-BL6 melanoma cells; [8],51.7%
same,IC50,[3],> 100 µg/mL
same,suppression rate on tumor weight,[2]; [10],66.2%
same,suppression rate on tumor weight,[2]; [11],87.3%
same,loss of body weight by continuous administration,"[2]; intraperitoneal from Day 10, dose not specified (groups 50 and 3.1 mg/kg)",not observed
same,IC50,[4],> 100 µg/mL
same,IC50,EL-4 mouse thymoma cells,> 100 µg/mL
same,abnormalities during monitoring and in remarks after dissection,[5]; 25 mg/kg per administration,nor did they show any abnormalities
same,Heart weight (Avg.),[5]; 25 mg/kg per administration,118.3 mg
same,Left kidney weight (Avg.),[5]; 25 mg/kg per administration,204.7 mg
same,Liver weight (Avg.),[5]; 25 mg/kg per administration,1769.3 mg
same,Lung weight (Avg.),[5]; 25 mg/kg per administration,182 mg
same,Right kidney weight (Avg.),[5]; 25 mg/kg per administration,210.3 mg
same,Spleen weight (Avg.),[5]; 25 mg/kg per administration,127.7 mg
same,Thymus weight (Avg.),[5]; 25 mg/kg per administration,63.7 mg
same,change in body weight,[5]; 25 mg/kg per administration,did not decrease in body weight
same,abnormalities during monitoring and in remarks after dissection,[5]; 50 mg/kg per administration,nor did they show any abnormalities
same,Heart weight (Avg.),[5]; 50 mg/kg per administration,120 mg
same,Left kidney weight (Avg.),[5]; 50 mg/kg per administration,202.3 mg
same,Liver weight (Avg.),[5]; 50 mg/kg per administration,1803.7 mg
same,Lung weight (Avg.),[5]; 50 mg/kg per administration,165.3 mg
same,Right kidney weight (Avg.),[5]; 50 mg/kg per administration,206.7 mg
same,Spleen weight (Avg.),[5]; 50 mg/kg per administration,141.7 mg
same,Thymus weight (Avg.),[5]; 50 mg/kg per administration,76 mg
same,change in body weight,[5]; 50 mg/kg per administration,did not decrease in body weight
